Patent US11214594B2, “Antimicrobial peptide having synergistic antibacterial effect with antibiotics on multidrug resistant bacteria, and use thereof” (priority 2016, dated 2022)
Converted amounts (≈) assume the structure as drawn. Where two headings read alike, the source gives them in different places. Where a SMILES comes first, the peptide text is derived from it.

Tests used:
MDRST 8007 = assay: Minimal inhibitory concentration (MIC), single agent; assay type: cell-based, Salmonella typhimurium; settings: agent alone
Method: (§1) For the antibacterial activity, a minimal inhibitory concentration (MIC) of a peptide in which fungus bodies were not split in an MH medium with sufficient nutrients was measured.
(§2) Specifically, the strains described in the following [Table 2] were purchased and diluted with an MH medium such that the number of bacteria was 2×10^6 colony-forming units (CFUs), 100 μl of each of the diluted strains was aliquoted into a 96-well microtiter plate, and then 100 μl of a peptide solution diluted with the MH medium (solution diluted stepwise at 2: 1) was added to each well.

MDRAB 12035 [1] = assay: MIC of antibiotic during combined treatment with antimicrobial peptide; assay type: cell-based, Acinetobacter baumannii
Method: (§3) Specifically, the strains described in [Table 2] were prepared and diluted with an MH medium such that the number of bacteria was 2×10^6 colony-forming units (CFUs) per 1 ml, 100 μl of the diluted strains was each aliquoted into a 96-well microtiter plate, and then 50 μl of a peptide solution diluted with the MH medium from the MIC value (solution diluted stepwise at 2: 1) was added to each well. Thereafter, the MIC value of each mixed solution was determined by diluting the antibiotic solution with the MH medium, adding 50 μl of the diluted solution to each well, and performing an experiment even under a reversed condition.

B. subtilis = assay: microbe, parasite or virus in culture; assay type: cell-based, Bacillus subtilis
How it was run: (§4)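 Peptides were serially diluted twofold in Mueller-Hinton medium and combined 1:1 with bacterial suspensions prepared at 2×10^6 CFU. Readout was the minimal inhibitory concentration, i.e. the lowest concentration with no growth.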

S. aureus = assay: microbe, parasite or virus in culture; assay type: cell-based, Staphylococcus aureus
How it was run: as §4

MRSA 3114 = assay type: cell-based, Staphylococcus aureus; settings: 3114
Method: as §1, §2

MRSA 3126 = assay type: cell-based, Staphylococcus aureus; settings: 3126
Method: as §1, §2

S. typhimurium = assay: microbe, parasite or virus in culture; assay type: cell-based, Salmonella typhimurium
How it was run: as §4

MDRAB 12036 = assay type: cell-based, Acinetobacter baumannii
Method: as §1, §2

MDREC 1229 [2] = assay: MIC of antibiotic during combined treatment with antimicrobial peptide; assay type: cell-based, Escherichia coli
Method: as §3

A. baumannii [3] = assay: MIC of antimicrobial peptide during combined treatment with antibiotic; assay type: cell-based, Acinetobacter baumannii
How it was run: (§5)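 Broth microdilution in MH medium; strains were diluted to 2×10^6 CFU per ml before plating. Peptide was serially diluted stepwise at 2:1 starting from its MIC, and MH-diluted antibiotic was then added to determine MIC. The reversed arrangement was also tested.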

MDRAB 12035 [4] = assay: as above; assay type: cell-based, Acinetobacter baumannii
How it was run: as §5

S. epidermidis = assay: microbe, parasite or virus in culture; assay type: cell-based, Staphylococcus epidermidis
How it was run: as §4

MDRPA 2003 = assay type: cell-based, Pseudomonas aeruginosa
Method: as §1, §2

MDRPA 2002 = assay type: cell-based, Pseudomonas aeruginosa
Method: as §1, §2

P. aeruginosa = assay: microbe, parasite or virus in culture; assay type: cell-based, Pseudomonas aeruginosa
How it was run: as §4

MDREC 1229 [5] = assay type: cell-based, Escherichia coli
Method: as §3

E. coli = assay type: cell-based, Escherichia coli; settings: E. coli
Method: as §3

A. baumannii [6] = assay: microbe, parasite or virus in culture; assay type: cell-based, Acinetobacter baumannii
How it was run: as §4

MDRAB 12035 [7] = assay: microbe, parasite or virus in culture; assay type: cell-based, Acinetobacter baumannii
How it was run: as §4

MDREC 1238 = assay type: cell-based, Escherichia coli
Method: as §1, §2

[8] = peptide treatment concentration 1 μg/ml
[9] = peptide treatment concentration 2 μg/ml
[10] = peptide treatment concentration 4 μg/ml
[11] = peptide treatment concentration 6 μg/ml
[12] = peptide treatment concentration 8 μg/ml
[13] = peptide treatment concentration 16 μg/ml
[14] = peptide treatment concentration 32 μg/ml
[15] = peptide treatment concentration 64 μg/ml
[16] = erythromycin 4 μg/ml (Conc./MIC 1/8)
[17] = erythromycin 8 μg/ml (Conc./MIC 1/4)
[18] = erythromycin 16 μg/ml (Conc./MIC 1/2)
[19] = erythromycin 32 μg/ml (Conc./MIC 1)
[20] = vancomycin 512 μg/ml (Conc./MIC 1/2)
[21] = vancomycin 1024 μg/ml (Conc./MIC 1)
[22] = with Erythromycin […] (Conc./MIC 1)

CC[C@H](C)[C@H](NC(=O)[C@H](CCCCN)NC(=O)[C@H](Cc1c[nH]c2ccccc12)NC(=O)[C@@H](N)CCCNC(=N)N)C(=O)N[C@@H](Cc1ccccc1)C(=O)N[C@@H](CCCCN)C(=O)N[C@@H](CCCCN)C(=O)N[C@H](C(=O)N1CCC[C@H]1C(=O)N[C@@H](CCCCN)C(=O)N[C@@H](CC(C)C)C(=O)N[C@@H](CC(C)C)C(=O)N[C@@H](Cc1c[nH]cn1)C(=O)N[C@@H](CO)C(=O)N[C@@H](C)C(=O)N[C@@H](CCCCN)C(=O)N[C@@H](CCCCN)C(=O)N[C@@H](Cc1c[nH]c2ccccc12)C(N)=O)[C@@H](C)CC [PapMA-9, RWK IFK KIP KLL HSA KKW-NH2] (H-RWKIFKKIPKLLHSAKKW-NH2; N-terminus assumed)
Minimal inhibitory concentration MIC (MDRST 8007): 64 µg/mL (≈ 27.7 µM) | Erythromycin MIC during combined treatment with peptide (MDRAB 12035 [1]; [8]): 16 µg/mL | Linezolid MIC during combined treatment with peptide (MDRAB 12035 [1]; [8]): >128 µg/mL | Vancomycin MIC during combined treatment with peptide (MDRAB 12035 [1]; [8]): >128 µg/mL | Erythromycin MIC during combined treatment with peptide (MDRAB 12035 [1]; [9]): 16 µg/mL | Linezolid MIC during combined treatment with peptide (MDRAB 12035 [1]; [9]): 64 µg/mL | Vancomycin MIC during combined treatment with peptide (MDRAB 12035 [1]; [9]): 128 µg/mL | Erythromycin MIC during combined treatment with peptide (MDRAB 12035 [1]; [10]): 4 µg/mL | Linezolid MIC during combined treatment with peptide (MDRAB 12035 [1]; [10]): 32 µg/mL | Vancomycin MIC during combined treatment with peptide (MDRAB 12035 [1]; [10]): 64 µg/mL | Erythromycin MIC during combined treatment with peptide (MDRAB 12035 [1]; [11]): 0.5 µg/mL | Linezolid MIC during combined treatment with peptide (MDRAB 12035 [1]; [11]): 16 µg/mL | Vancomycin MIC during combined treatment with peptide (MDRAB 12035 [1]; [11]): 16 µg/mL | Erythromycin MIC during combined treatment with peptide (MDRAB 12035 [1]; [12]): 0.25 µg/mL | Linezolid MIC during combined treatment with peptide (MDRAB 12035 [1]; [12]): 4 µg/mL | Vancomycin MIC during combined treatment with peptide (MDRAB 12035 [1]; [12]): 8 µg/mL | Erythromycin MIC during combined treatment with peptide (MDRAB 12035 [1]; [13]): 0.25 µg/mL | Linezolid MIC during combined treatment with peptide (MDRAB 12035 [1]; [13]): 4 µg/mL | Vancomycin MIC during combined treatment with peptide (MDRAB 12035 [1]; [13]): 8 µg/mL | Erythromycin MIC during combined treatment with peptide (MDRAB 12035 [1]; [14]): 0.125 µg/mL | Linezolid MIC during combined treatment with peptide (MDRAB 12035 [1]; [14]): 2 µg/mL | Vancomycin MIC during combined treatment with peptide (MDRAB 12035 [1]; [14]): 2 µg/mL | Erythromycin MIC during combined treatment with peptide (MDRAB 12035 [1]; [15]): 0 µg/mL | Linezolid MIC during combined treatment with peptide (MDRAB 12035 [1]; [15]): 0 µg/mL | Vancomycin MIC during combined treatment with peptide (MDRAB 12035 [1]; [15]): 0 µg/mL | Minimal inhibitory concentration MIC (B. subtilis): >128 µg/mL | Minimal inhibitory concentration MIC (S. aureus): >128 µg/mL | Minimal inhibitory concentration MIC (MRSA 3114): >128 µg/mL | Minimal inhibitory concentration MIC (MRSA 3126): >128 µg/mL | Minimal inhibitory concentration MIC (S. typhimurium): 32 µg/mL (≈ 13.9 µM) | Minimal inhibitory concentration MIC (MDRAB 12036): 64 µg/mL (≈ 27.7 µM) | Antibiotic MIC, Erythromycin (MDREC 1229 [2]; [8]): 64 µg/mL | Antibiotic MIC, Linezolid (MDREC 1229 [2]; [8]): 128 µg/mL | Antibiotic MIC, Vancomycin (MDREC 1229 [2]; [8]): >128 µg/mL | Antibiotic MIC, Erythromycin (MDREC 1229 [2]; [9]): 64 µg/mL | Antibiotic MIC, Linezolid (MDREC 1229 [2]; [9]): 64 µg/mL | Antibiotic MIC, Vancomycin (MDREC 1229 [2]; [9]): >128 µg/mL | Antibiotic MIC, Erythromycin (MDREC 1229 [2]; [10]): 8 µg/mL | Antibiotic MIC, Linezolid (MDREC 1229 [2]; [10]): 32 µg/mL | Antibiotic MIC, Vancomycin (MDREC 1229 [2]; [10]): 128 µg/mL | Antibiotic MIC, Erythromycin (MDREC 1229 [2]; [11]): 2 µg/mL | Antibiotic MIC, Linezolid (MDREC 1229 [2]; [11]): 16 µg/mL | Antibiotic MIC, Vancomycin (MDREC 1229 [2]; [11]): 32 µg/mL | Antibiotic MIC, Erythromycin (MDREC 1229 [2]; [12]): 1 µg/mL | Antibiotic MIC, Linezolid (MDREC 1229 [2]; [12]): 8 µg/mL | Antibiotic MIC, Vancomycin (MDREC 1229 [2]; [12]): 8 µg/mL | Antibiotic MIC, Erythromycin (MDREC 1229 [2]; [13]): 0.5 µg/mL | Antibiotic MIC, Linezolid (MDREC 1229 [2]; [13]): 4 µg/mL | Antibiotic MIC, Vancomycin (MDREC 1229 [2]; [13]): 4 µg/mL | Antibiotic MIC, Erythromycin (MDREC 1229 [2]; [14]): 0.125 µg/mL | Antibiotic MIC, Linezolid (MDREC 1229 [2]; [14]): 2 µg/mL | Antibiotic MIC, Vancomycin (MDREC 1229 [2]; [14]): 2 µg/mL | Antibiotic MIC, Erythromycin (MDREC 1229 [2]; [15]): 0 µg/mL | Antibiotic MIC, Linezolid (MDREC 1229 [2]; [15]): 0 µg/mL | Antibiotic MIC, Vancomycin (MDREC 1229 [2]; [15]): 0 µg/mL | Peptide MIC during treatment with antibiotic (A. baumannii [3]; [16]): 4 µg/mL | Peptide MIC during treatment with antibiotic (A. baumannii [3]; [17]): 2 µg/mL | Peptide MIC during treatment with antibiotic (A. baumannii [3]; [18]): 2 µg/mL | Peptide MIC during treatment with antibiotic (A. baumannii [3]; [19]): 0 µg/mL | Peptide MIC during treatment with antibiotic (A. baumannii [3]; linezolid 32 μg/ml (Conc./MIC 1/8)): 4 µg/mL | Peptide MIC during treatment with antibiotic (A. baumannii [3]; linezolid 64 μg/ml (Conc./MIC 1/4)): 4 µg/mL | Peptide MIC during treatment with antibiotic (A. baumannii [3]; linezolid […] (Conc./MIC 1)): 0 µg/mL | Peptide MIC during treatment with antibiotic (A. baumannii [3]; linezolid […] (Conc./MIC 1/2)): 2 µg/mL | Peptide MIC during treatment with antibiotic (A. baumannii [3]; [20]): 0.25 µg/mL | Peptide MIC during treatment with antibiotic (A. baumannii [3]; [21]): 0 µg/mL | Peptide MIC during treatment with antibiotic (A. baumannii [3]; vancomycin […] (Conc./MIC 1/4)): 0.5 µg/mL | Peptide MIC during treatment with antibiotic (A. baumannii [3]; vancomycin […] (Conc./MIC 1/8)): 2 µg/mL | Peptide MIC during treatment with erythromycin (MDRAB 12035 [4]; [16]): 4 µg/mL | Peptide MIC during treatment with erythromycin (MDRAB 12035 [4]; [17]): 4 µg/mL | Peptide MIC during treatment with erythromycin (MDRAB 12035 [4]; [18]): 1 µg/mL | Peptide MIC during treatment with erythromycin (MDRAB 12035 [4]; [19]): 0 µg/mL | Peptide MIC during treatment with linezolid (MDRAB 12035 [4]; linezolid 64 μg/ml (Conc./MIC 1/8)): 2 µg/mL | Peptide MIC during treatment with linezolid (MDRAB 12035 [4]; linezolid 512 μg/ml (Conc./MIC 1)): 0 µg/mL | Peptide MIC during treatment with linezolid (MDRAB 12035 [4]; linezolid […] (Conc./MIC 1/2)): 1 µg/mL | Peptide MIC during treatment with linezolid (MDRAB 12035 [4]; linezolid […] (Conc./MIC 1/4)): 2 µg/mL | Peptide MIC during treatment with vancomycin (MDRAB 12035 [4]; [20]): 1 µg/mL | Peptide MIC during treatment with vancomycin (MDRAB 12035 [4]; [21]): 0.25 µg/mL | Peptide MIC during treatment with vancomycin (MDRAB 12035 [4]; vancomycin […] (Conc./MIC 1/4)): 1 µg/mL | Peptide MIC during treatment with vancomycin (MDRAB 12035 [4]; vancomycin […] (Conc./MIC 1/8)): 2 µg/mL | Minimal inhibitory concentration MIC (S. epidermidis): >128 µg/mL | Minimal inhibitory concentration MIC (MDRPA 2003): 16 µg/mL (≈ 6.94 µM) | Minimal inhibitory concentration MIC (MDRPA 2002): 16 µg/mL (≈ 6.94 µM) | Minimal inhibitory concentration MIC (P. aeruginosa): 8 µg/mL (≈ 3.47 µM) | Peptide MIC (MDREC 1229 [5]; [22]): 0 µg/mL | Peptide MIC (MDREC 1229 [5]; with Linezolid 512 μg/ml (Conc./MIC 1)): 0 µg/mL | Peptide MIC (E. coli; [22]): 0 µg/mL | Peptide MIC (E. coli; with Linezolid […] (Conc./MIC 1)): 0 µg/mL | Peptide MIC (E. coli; with Vancomycin 1024 μg/ml (Conc./MIC 1)): 0 µg/mL | Minimal inhibitory concentration MIC (A. baumannii [6]): 32 µg/mL (≈ 13.9 µM) | Peptide MIC, peptide alone (A. baumannii [6]): 32 µg/mL | Minimal inhibitory concentration MIC (MDRAB 12035 [7]): 64 µg/mL (≈ 27.7 µM) | Peptide MIC, peptide alone (MDRAB 12035 [7]): 64 µg/mL | Minimal inhibitory concentration MIC (MDREC 1238): 64 µg/mL (≈ 27.7 µM)
